Source: US20230406883A1, “COMPOUNDS AND THEIR USE IN TREATMENT OF TACHYKININ RECEPTOR MEDIATED DISORDERS” (Embark Biotech ApS, priority 2020, published 2023)
Several values for one entry are separate records, joined by “and”; a condition that tells them apart may be missing. Identical values can stand only once. Numbered stars: 1 amine (or outer) side, 2 acyl side, 3 side chain; on linkers, the order of the positions; unused ones are H or OH. Square brackets hold non-standard residues; d marks the D form. Peptide text beside a SMILES is read from it. * marks the point of attachment. C18 diacid = O=C(O)CCCCCCCCCCCCCCCCC(=O)*; γGlu = O=C(O)[C@H](CCC(=O)[*:2])N[*:1]; C14 diacid = O=C(O)CCCCCCCCCCCCC(=O)*; Cha = N[C@@H](CC1CCCCC1)C(=O)O; NMeL = CN[C@@H](CC(C)C)C(=O)O; Nle = CCCC[C@H](N)C(=O)O; AEEA = NCCOCCOCC(=O)O; βAla = NCCC(=O)O

Columns and labels:
Assay in all cases: IP3 assay (inositol trisphosphate, 3H-myoinositol) in transiently transfected COS-7 cells
Assay type in all cases: cell-based
hNK1R = biological target: T1, hNK1R (Homo sapiens, UniProt P25103); conditions: COS-7 cells; for hNK1R, IP3 Efficacy: figure legends: percent of 10^-6 M NKA; for EC50: 0.2% ovalbumin buffer
T1 construct: host or cells: COS-7
Method: (§1) Agonist-induced G-protein coupled receptor (GPCR) activation was measured by an Inositol-1,4,5-Trisphosphate [^3H] Radioreceptor Assay (IPs Assay). Assays were carried out using COS-7 cells transiently transfected by calcium phosphate transfection with a vector pcDNA3.1(+) encoding one of the indicated receptors (Genscript). Briefly, DNA mixed with CaCl2 (2 M) and TE-buffer (10 mM Tris-HCl, 1 mM EDTA, pH 7.5) was dropwise added to 2×HBS (50 mM HEPES, 280 mM NaCl, 1.5 mM NaH2PO4, pH 7.2) and incubated for 45 min at room temperature (22±2° C.). The mixture and a final concentration of 100 μM Chloroquine were added to the cells and left to incubate for 5 hours at 37° C. under standard cell culture conditions (10% CO2) before changing medium to fresh medium containing 5 μl/mL Myo-[2-^3H(N)]-inositol (labelling medium).
(§2) The IP3 assay takes advantage of the tachykinin receptors' ability to induce production of the inositol trisphosphate (IP3) second messenger upon agonist (ligand) binding on receptor expressing cells following an initial ^3H-inositol labelling period. In effect this means that production of the second messenger IP3 as a measure of receptor activity can be assessed by counting ^3H-activity.
(§3) Assay solutions used: Wash buffer (HBSS), Assay buffer (HBSS+10 mM LiCl and 0,2% w/v ovalbumin), Lysis buffer (10 mM formic acid), and SPA YSI beads (12.5 mg/ml in H2O). The assay was performed the day after transfection. Briefly, labelling medium was aspirated, and plates were washed ×1 in wash buffer before adding 100 μl assay buffer, pre-incubated for 30 min followed by 120 min incubation with agonist, both at 37° C. After incubation, plates were immediately placed on ice and the incubation medium was aspirated and 40 μl of 10 mM formic acid per well was added. Plates were incubated for at least 30 min on ice. 60 μl (1 mg/well) SPA YSI beads/well was pipetted into a solid white 96 wells plate and 35 μl of the lysis solution was transferred to the plate before covering plates with seal cover and shaking for 10 min. (max speed). Centrifuge plates and leave for 8 hours at room temperature before counting the plates in a MicroBeta plate counter (Perkin Elmer).

hNK3R = biological target: T2, hNK3R (Homo sapiens, UniProt P29371); conditions: COS-7 cells; for hNK3, IP3 Efficacy: figure legends: percent of 10^-6 M NKA; for EC50: 0.2% ovalbumin buffer, read-out: hNK3, IP3 EC50
T2 construct: host or cells: COS-7
T2 sequence (P29371 1-465): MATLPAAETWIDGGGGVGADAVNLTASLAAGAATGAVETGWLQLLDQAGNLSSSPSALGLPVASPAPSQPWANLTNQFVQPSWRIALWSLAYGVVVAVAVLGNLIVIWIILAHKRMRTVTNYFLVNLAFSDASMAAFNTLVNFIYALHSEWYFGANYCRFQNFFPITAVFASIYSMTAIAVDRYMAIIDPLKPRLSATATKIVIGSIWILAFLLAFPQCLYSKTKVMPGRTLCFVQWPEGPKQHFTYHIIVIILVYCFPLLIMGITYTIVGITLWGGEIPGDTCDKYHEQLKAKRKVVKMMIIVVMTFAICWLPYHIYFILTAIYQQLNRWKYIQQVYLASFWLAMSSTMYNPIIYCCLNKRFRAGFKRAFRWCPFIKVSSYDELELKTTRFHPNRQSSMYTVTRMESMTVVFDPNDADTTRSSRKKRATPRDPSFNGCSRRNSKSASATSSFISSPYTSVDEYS
Method: as §1, §2, §3

hNK2R = biological target: T3, hNK2R (Homo sapiens, UniProt P21452); conditions: COS-7 cells; for EC50: 0.2% ovalbumin buffer; for hNK2R, IP3 Efficacy: figure legends: percent of 10^-6 M NKA
T3 construct: host or cells: COS-7
T3 sequence (P21452 1-398): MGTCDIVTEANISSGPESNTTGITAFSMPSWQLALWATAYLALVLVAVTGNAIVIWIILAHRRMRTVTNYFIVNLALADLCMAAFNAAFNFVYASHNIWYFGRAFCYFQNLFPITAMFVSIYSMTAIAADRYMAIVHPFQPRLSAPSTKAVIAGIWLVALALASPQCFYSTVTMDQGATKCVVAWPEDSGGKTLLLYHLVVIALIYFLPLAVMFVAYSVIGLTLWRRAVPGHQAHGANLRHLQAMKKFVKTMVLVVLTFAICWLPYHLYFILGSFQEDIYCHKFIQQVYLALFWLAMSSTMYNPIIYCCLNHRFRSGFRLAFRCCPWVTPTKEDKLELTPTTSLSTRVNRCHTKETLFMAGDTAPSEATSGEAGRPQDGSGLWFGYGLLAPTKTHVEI
Method: as §1, §2, §3

T1 sequence (P25103 whole entry): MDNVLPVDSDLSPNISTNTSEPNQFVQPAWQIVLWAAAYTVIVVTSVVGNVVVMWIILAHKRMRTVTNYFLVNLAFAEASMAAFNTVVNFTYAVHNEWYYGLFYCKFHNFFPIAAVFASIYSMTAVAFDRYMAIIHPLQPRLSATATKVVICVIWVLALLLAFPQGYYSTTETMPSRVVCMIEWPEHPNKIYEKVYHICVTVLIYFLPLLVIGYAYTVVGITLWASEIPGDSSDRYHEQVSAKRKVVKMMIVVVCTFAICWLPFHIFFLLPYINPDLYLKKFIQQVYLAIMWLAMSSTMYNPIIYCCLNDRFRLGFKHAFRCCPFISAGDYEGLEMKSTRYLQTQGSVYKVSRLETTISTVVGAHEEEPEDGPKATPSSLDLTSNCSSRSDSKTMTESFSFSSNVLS

Compound | hNK1R, IP3 Efficacy (hNK1R) | hNK3, IP3 Efficacy (hNK3R) | EC50 (hNK2R) | hNK2R, IP3 Efficacy (hNK2R) | EC50 (hNK1R) | EC50 (hNK3R)
CCCC[C@H](NC(=O)[C@H](CC(C)C)N(C)C(=O)CNC(=O)[C@H](CCCNC(=N)N)NC(=O)[C@H](Cc1ccc(O)cc1)NC(=O)[C@H](CCCCN)NC(=O)[C@H](CCC(=O)O)NC(=O)COCCOCCNC(=O)COCCOCCNC(=O)CC[C@H](NC(=O)CCCCCCCCCCCCCCCCC(=O)O)C(=O)O)C(N)=O [compound 314, *Glu;Lys;Tyr;Arg;Gly;NmLeu;Nle;NH2] ({C18 diacid-γGlu-AEEA-AEEA}-EKYRG[NMeL][Nle]-NH2) | 0% | 0% | ~3100 nM | 45% | – | –
CCCC[C@H](NC(=O)[C@H](CC(C)C)NC(=O)CNC(=O)[C@@H](NC(=O)[C@H](Cc1ccccc1)NC(=O)[C@H](CCCCN)NC(=O)[C@H](CC(=O)O)NC(=O)COCCOCCNC(=O)COCCOCCNC(=O)CC[C@H](NC(=O)CCCCCCCCCCCCCCCCC(=O)O)C(=O)O)C(C)C)C(N)=O [compound 389, *Asp;Lys;Phe;Val;Gly;Leu;Nle;NH2] | 108% and 100% | 100% and 60% | 2.8 nM and 2.9 nM | 83% and 80% | 16 nM and 15 nM | 35 nM
CCCC[C@H](NC(=O)[C@H](CC(C)C)N(C)C(=O)CNC(=O)[C@@H](NC(=O)[C@H](Cc1ccccc1)NC(=O)[C@H](CCCCN)NC(=O)[C@H](CCC(=O)O)NC(=O)COCCOCCNC(=O)COCCOCCNC(=O)CC[C@H](NC(=O)CCCCCCCCCCCCCCCCC(=O)O)C(=O)O)[C@@H](C)O)C(N)=O [compound 397, *Glu;Lys;Phe;Thr;Gly;NmLeu;Nle;NH2] ({C18 diacid-γGlu-AEEA-AEEA}-EKFTG[NMeL][Nle]-NH2) | 0% | 0% | 28 nM | 75% | – | –
CCCC[C@H](NC(=O)[C@H](CC(C)C)N(C)C(=O)CCNC(=O)[C@@H](NC(=O)[C@H](Cc1ccccc1)NC(=O)[C@H](CO)NC(=O)[C@H](CC(=O)O)NC(=O)[C@@H](NC(=O)[C@H](CCCCN)NC(=O)COCCOCCNC(=O)COCCOCCNC(=O)CC[C@H](NC(=O)CCCCCCCCCCCCCCCCC(=O)O)C(=O)O)[C@@H](C)O)C(C)C)C(N)=O [compound 310, *Lys;Thr;Asp;Ser;Phe;Val;bAla;NmLeu;Nle;NH2] ({C18 diacid-γGlu-AEEA-AEEA}-KTDSFV[βAla][NMeL][Nle]-NH2) | 0% | 80% | 45 nM | 65% | – | –
CCCC[C@H](NC(=O)[C@H](CC(C)C)N(C)C(=O)CNC(=O)[C@@H](NC(=O)[C@H](Cc1ccccc1)NC(=O)[C@H](CCCCNC(=O)COCCOCCNC(=O)COCCOCCNC(=O)CC[C@H](NC(=O)CCCCCCCCCCCCCCCCC(=O)O)C(=O)O)NC(=O)[C@@H](N)CC(=O)O)C(C)C)C(N)=O [compound 307, Asp;Lys*;Phe;Val;Gly;NmLeu;Nle;NH2] | 64% | 85% | 24 nM | 80% | – | ~12000 nM
CCCC[C@H](NC(=O)[C@H](CC(C)C)N(C)C(=O)CNC(=O)[C@@H](NC(=O)[C@H](Cc1ccc(O)cc1)NC(=O)[C@H](CCCCN)NC(=O)[C@H](CC(=O)O)NC(=O)COCCOCCNC(=O)COCCOCCNC(=O)CC[C@H](NC(=O)CCCCCCCCCCCCC(=O)O)C(=O)O)C(C)C)C(N)=O [compound 368, *Asp;Lys;Tyr;Val;Gly;NmLeu;Nle;NH2] ({C14 diacid-γGlu-AEEA-AEEA}-DKYVG[NMeL][Nle]-NH2) | 0% | 0% | 19 nM | 70% | – | –
CCCC[C@H](NC(=O)[C@H](CC(C)C)N(C)C(=O)CNC(=O)[C@@H](NC(=O)[C@H](Cc1ccccc1)NC(=O)[C@H](CCCNC(=N)N)NC(=O)[C@H](CCC(=O)O)NC(=O)COCCOCCNC(=O)COCCOCCNC(=O)CC[C@H](NC(=O)CCCCCCCCCCCCCCCCC(=O)O)C(=O)O)C(C)C)C(N)=O [compound 337, *Glu;Arg;Phe;Val;Gly;NmLeu;Nle;NH2] ({C18 diacid-γGlu-AEEA-AEEA}-ERFVG[NMeL][Nle]-NH2) | 70% | 100% | 4 nM and 1.3 nM | 80% | 23 nM | 43 nM
CCCC[C@H](NC(=O)[C@H](CC(C)C)NC(=O)[C@@H](CO)NC(=O)[C@@H](NC(=O)[C@H](Cc1ccccc1)NC(=O)[C@H](CCCCN)NC(=O)[C@H](CC(=O)O)NC(=O)COCCOCCNC(=O)COCCOCCNC(=O)CC[C@H](NC(=O)CCCCCCCCCCCCCCCCC(=O)O)C(=O)O)C(C)C)C(N)=O [compound 385, *Asp;Lys;Phe;Val;dSer;Leu;Nle;NH2] ({C18 diacid-γGlu-AEEA-AEEA}-DKFV[dS]L[Nle]-NH2) | 0% | 0% | 4.5 nM | 46% | – | –
CC(C)C[C@@H](C(=O)N[C@@H](CC1CCCCC1)C(N)=O)N(C)C(=O)CNC(=O)[C@@H](NC(=O)[C@H](Cc1ccc(O)cc1)NC(=O)[C@H](CCCCN)NC(=O)[C@H](CC(=O)O)NC(=O)COCCOCCNC(=O)COCCOCCNC(=O)CC[C@H](NC(=O)CCCCCCCCCCCCCCCCC(=O)O)C(=O)O)C(C)C [compound 313, *Asp;Lys;Tyr;Val;Gly;NmLeu;cHexAla;NH2] ({C18 diacid-γGlu-AEEA-AEEA}-DKYVG[NMeL][Cha]-NH2) | 20% | 0% | 23 nM | 70% | – | –
CCCC[C@H](NC(=O)[C@H](CC(C)C)NC(=O)CNC(=O)[C@@H](NC(=O)[C@H](Cc1ccccc1)NC(=O)[C@H](CO)NC(=O)[C@H](CC(=O)O)NC(=O)[C@@H](NC(=O)[C@H](CCCCN)NC(=O)COCCOCCNC(=O)COCCOCCNC(=O)CC[C@H](NC(=O)CCCCCCCCCCCCCCCCC(=O)O)C(=O)O)[C@@H](C)O)C(C)C)C(N)=O [compound 308, *Lys;Thr;Asp;Ser;Phe;Val;Gly;Leu;Nle;NH2] | 60% | 93% | 96 nM | 65% | ~164 nM | 1000 nM
